One series addresses T1, CK2 (Rattus norvegicus, UniProt P19139).
T1 construct: Native CK1 (nCK1) and CK2 (nCK2) were purified from rat liver; from tissue; host or cells: rat liver
As to the kind of experiment: CK2 phosphorylation assay, kinetic determination of inhibition constant. Format: biochemical.

Series [1] relates to human leukemia Jurkat cells. As to the kind of experiment: Caspase activation by Western blot of PARP and HS1 degradation. In kind it is cell-based. The conditions noted are these: 14 hours, 5 or 10 uM, FIG. 2. As to the method: Leukemia Jurkat cells were incubated for 14 hours without the addition of 2-dimethylamino-4,5,6,7-tetrabromobenzimidazole (C), and in a medium including 5 or 10 uM of 2-dimethylamino-4,5,6,7-tetrabromobenzimidazole and 50 ng/mL of antiFas (aF), a control substance to follow the apoptosis process.
The human leukemia Jurkat T-cell line was maintained in RPMI-1640, supplemented with 10% (v/v) fetal calf serum, 2 mM L-glutamine, 100 units/ml penicillin and 100 ug/ml streptomycin. For the treatment, cells were suspended at a density of 10^6 cells/ml in a medium containing 1% (v/v) fetal calf serum, then incubated at 37° C., in the presence of the compounds at the indicated concentrations. Control cells were treated with equal amounts of solvent inhibitor was solved. At the end of incubations, cells were lysed by the addition of hypoosmotic buffer, as previously described (Sarno et al., 2003).
(§1) Cell viability was assessed by means of 3-(4,5-dimethylthiazol-2-yl)-3,5-diphenyltriazolium bromide (MTT) reagent, while caspase activation was followed by Western blot monitoring of PARP and HS1 protein degradation, as previously described (Ruzzene et al., 2002).

For series [2], the system named is human leukemia Jurkat T cells. As to the kind of experiment: Cytotoxic effect, MTT viability assay. Format: cell-based. Conditions: 24 hours. On the procedure: Leukemia Jurkat cells were incubated for 24 hours in a medium of increasing concentration of 4,5,6,7-tetrabromobenzimidazole (TBB) or 2-dimethylamino-4,5,6,7-tetrabromobenzimidazole (K25). The cytotoxic effect was assessed by means of staining with a use of MTT, (3-(4,5-dimethylthiazol-2-yl)-3,5-diphenyltriazolium bromide, reagent. Control cells were incubated in a medium with added solvent (DMSO, 05% v/v). The results were calculated as mean values of three experiments. The resulting cytotoxic effect of 4,5,6,7-tetrabromo-2-dimethylaminobenzimidazole on human leukemia Jurkat T cells is presented in FIG. 1. […].
The human leukemia Jurkat T-cell line was maintained in RPMI-1640, supplemented with 10% (v/v) fetal calf serum, 2 mM L-glutamine, 100 units/ml penicillin and 100 ug/ml streptomycin. For the treatment, cells were suspended at a density of 10^6 cells/ml in a medium containing 1% (v/v) fetal calf serum, then incubated at 37° C., in the presence of the compounds at the indicated concentrations. Control cells were treated with equal amounts of solvent inhibitor was solved. […]
as §1

For another series, the target named is DYRK1a (Homo sapiens, UniProt Q13627). Description: Enzymatic activity of kinases, residual activity with inhibitor. Conditions: inhibitor at 10 μM; percentage activity without an inhibitor. Format: biochemical. As to the method: Tests of enzymatic activity of kinases were carried out using methodology described by Sarno et al. 2003 and are summarized in Table 1. The residual activity was determined by incubation in the presence of inhibitor at a concentration of 10 μM and expressed as percentage activity without an inhibitor.
Saccharomyces cerevisiae piD261 was provided by Dr. S. Facchin (Padova, Italy). The source of all the other protein kinases used for specificity assays is either described or referenced by Davies et al. (2000).

For the next series, the system named is isolated mitochondria. Description: Depolarization of isolated mitochondria.
Series [3] deals with G-CK (casein kinase from Golgi apparatus). Description: Enzymatic activity of kinases, residual activity with inhibitor. Format: biochemical, rat. Conditions: inhibitor at 10 μM; percentage activity without an inhibitor. As to the method:
(§2) Tests of enzymatic activity of kinases were carried out using methodology described by Sarno et al. 2003 and are summarized in Table 1. […] Native CK1 (nCK1) and CK2 (nCK2) were purified from rat liver (Meggio et al., 1981); Golgi CK (G-CK), purified from rat lactating mammary gland, was provided by Dr. A. M. Brunati (Padova, Italy). Protein tyrosine kinases Lyn, c-Fgr, Syk (also termed TPK-IIB) were purified from rat spleen as previously referenced (Sarno et al., 2003). Human recombinant α and β subunits of CK2 were expressed in E. coli and the holoenzyme was reconstituted and purified as previously described (Sarno et al., 1996). The […] and […] CK2 mutants were obtained as described previously (Sarno et al., 2003). […] double mutant was obtained with the “QuikChange-SiteDirected Mutagenesis” kit (Stratagene), using human […] cDNA α inserted in pT7-7 vector as template and two synthetic oligonucleotide primers, [NT] and [NT], each complementary to opposite strands of template. Expression and purification of the mutant was performed as previously described (Sarno et al., 2003).

Another series deals with CK1 (casein kinase 1). The description is as above. In kind it is biochemical, rat. Conditions: inhibitor at 10 μM; percentage activity without an inhibitor. On the procedure:
as §2

[4] abbreviates: CK2, competitive with respect of ATP, read-out: Inhibition constant Ki.

Where two headings read alike, the source gives them in different places. Where only a bound is given, the exact number is not on record here.

T1 sequence (P19139 whole entry): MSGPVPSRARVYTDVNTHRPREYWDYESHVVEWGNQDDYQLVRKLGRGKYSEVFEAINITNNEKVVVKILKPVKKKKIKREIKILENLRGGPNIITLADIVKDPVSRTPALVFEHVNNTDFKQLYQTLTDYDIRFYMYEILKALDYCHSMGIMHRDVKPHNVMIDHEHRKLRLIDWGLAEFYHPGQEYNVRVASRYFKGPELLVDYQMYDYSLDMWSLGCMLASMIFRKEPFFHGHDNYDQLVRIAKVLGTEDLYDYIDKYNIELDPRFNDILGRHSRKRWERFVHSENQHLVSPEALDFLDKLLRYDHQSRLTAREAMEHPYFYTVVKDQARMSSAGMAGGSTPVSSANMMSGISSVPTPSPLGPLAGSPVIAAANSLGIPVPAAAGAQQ
T1 sequence (P67874 2-215 partner limits assumed): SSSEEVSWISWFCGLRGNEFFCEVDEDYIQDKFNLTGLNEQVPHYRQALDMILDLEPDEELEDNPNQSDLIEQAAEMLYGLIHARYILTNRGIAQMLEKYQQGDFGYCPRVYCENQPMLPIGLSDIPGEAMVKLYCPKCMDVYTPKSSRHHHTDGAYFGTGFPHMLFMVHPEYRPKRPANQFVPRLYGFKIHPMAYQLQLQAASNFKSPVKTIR

On to `CN(C)CCNc1nc2c(Br)c(Br)c(Br)c(Br)c2[nH]1` [2-(2-Dimethylaminoethylamino)-4,5,6,7-tetrabromo-1H-benzimidazole], for which the melting point is > 250 °C (dec.). In addition, the Ki at CK2 turned out to be 160 nM.
As for `CC(O)CNc1nc2c(Br)c(Br)c(Br)c(Br)c2[nH]1` (stereo not drawn) [2-(2-hydroxypropylamino)-4,5,6,7-tetrabromo-1H-benzimidazole], the melting point lay within 258 to 260 °C. At CK2 (setting [4]), the Ki came to 140 nM.
The corresponding values for `OCCNc1nc2c(Br)c(Br)c(Br)c(Br)c2[nH]1` [2-Ethanolamine-4,5,6,7-tetrabromo-1H-benzimidazole] are 216 to 218 °C and 130 nM.
For the compound `CC(C)Nc1nc2c(Br)c(Br)c(Br)c(Br)c2[nH]1` [2-Isopropylamine-4,5,6,7-tetrabromo-1H-benzimidazole], the melting point was 288 to 290 °C (dec.). In addition, the Ki at CK2 (setting [4]) turned out to be 60 nM.
The corresponding values for `CNc1nc2c(Br)c(Br)c(Br)c(Br)c2[nH]1` [2-Methylamino-4,5,6,7-tetrabromo-1H-benzimidazole] are 283 to 285 °C and 90 nM.
`Nc1nc2c(Br)c(Br)c(Br)c(Br)c2[nH]1` [2-amino-4,5,6,7-tetrabromobenzimidazole, reference compound]: on CK2 (setting [4]), the Ki was 90 nM.
On to `CN(C)c1nc2c(Br)c(Br)c(Br)c(Br)c2[nH]1` [Example K25, 2-Dimethylamino-4,5,6,7-tetrabromo-1H-benzimidazole], for which the “Activation of caspase (degradation of HS1 and PARP)” value in series [1] is “Activation of caspase”. Besides, the “Cytotoxic effect compared with TBB” value was “several times higher” in series [2] (FIG. 1) and “several times more active” in series [2] (FIG. 1, listed as 2-dimethylamino-4,5,6,7-tetrabromobenzimidazole). Also, the “Residual activity of DYRK1a” value on DYRK1a is on record as 2 percentage. Further, the “Depolarization of isolated mitochondria” value in the series on isolated mitochondria is reported as “does not cause depolarization”. In addition, in series [3], the “Residual activity of G-CK” value was found to be 92 percentage. Further, the “Residual activity of CK1” value in the series with CK1 (casein kinase 1) is given as 87 percentage.
`Brc1c(Br)c(Br)c2[nH]nnc2c1Br` [TBB, 4,5,6,7-tetrabromobenzotriazole, reference compound]: the “Residual activity of DYRK1a” value on DYRK1a worked out at 22 percentage. Besides, the “Residual activity of G-CK” value in series [3] is reported as 95 percentage. In addition, the “Residual activity of CK1” value in the series on CK1 (casein kinase 1) is listed as 91 percentage.

The record behind these values is patent US7528259B2, “Derivatives of 4,5,6,7-tetrabromobenzimidazole and method of their preparation” (Selvita SP. Z O. O., priority 2004, dated 2009).
